Laboratory results: PubChem BioAssay AID179 (DTP/NCI, 2004)
Calls of active or inactive are those of the source.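 How the source made its calls: active means compounds giving half or more protection of infected cells from virus-caused growth loss, again on retest; inactive means the rest.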 Where a SMILES comes first, the peptide text is derived from it.

Test system: CEM cells HIV-1 protection, formazan growth assay
Experiment: NCI AIDS Antiviral Assay
Conditions: for IC50: measured here: growth of uninfected CEM cells
Summary of the method: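 Human CEM cells, uninfected and HIV-1-infected, received five drug concentrations, and growth was read by soluble formazan assay. Compounds giving at least 50% protection were retested; reproducible 100% protection defined confirmed active.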

| SMILES | EC50 | IC50 | outcome |
| --- | --- | --- | --- |
| COc1ccc(NC(=O)CC/C(CC(=O)c2ccco2)=N/Nc2ccc([N+](=O)[O-])cc2[N+](=O)[O-])cc1 | > 52.5 µM | 30.9 µM | – |
| CCOC(=O)c1ccc(NC(=O)Nc2cc(C)ccn2)cc1 | > 200 µM | > 200 µM | – |
| CC(C)C(NC(=O)C(N)CCCCN)C(=O)NC(CCCCN)C(=O)NCC(=O)NC(C(=O)O)C(C)O (centres undefined) (H-KVKGT-OH; configuration not given here) | – | – | inactive |
| COc1cc(C2c3c(ccc4ccccc34)C(=O)C3CCC(=O)N32)cc(OC)c1OC (centres undefined) | > 50.1 µM | 18.2 µM | – |
| CCCC(C)C(=Nc1ccc(Cl)c(Cl)c1)N(C)C (centres undefined) | > 200 µM | 28.2 µM | – |
| NC(=O)NN=C1Cc2ccccc2C1 | > 200 µM | > 200 µM | – |
| CCCCCCCCCCCCCCCCCC(=O)OCC(C[As](=O)(O)O)OC(=O)CCCCCCCCCCCCCCCCC (centres undefined) | > 17.8 µM | > 17.8 µM | – |
| CC(C)CCCC(C)N (centres undefined) | > 200 µM | > 200 µM | – |
| Cc1ccc(OCC2OC(n3cnc4c(Br)nc(Br)nc43)CC2Oc2ccc(C)cc2)cc1 (centres undefined) | > 200 µM | 2.09 µM | – |
| CCOc1ccc(-c2coc3cc(C)c(OCC)c(C)c3c2=O)cc1 | > 200 µM | > 200 µM | – |
| Cc1ccc(N2C3=C(CC4=C2CC(C)(C)CC4=O)C(=O)CC(C)(C)C3)cc1 | > 100 µM | > 100 µM | – |
| COC(=O)Nc1cn2ccc(Sc3ccccc3)cc2n1 | > 45.7 µM | 0.776 µM | – |
| COC(=O)/C(C#N)=C\NC(=S)C(N)=S | > 200 µM | 11.2 µM | – |
| COc1ccc(C(=O)CC2(O)C(=O)N(CN3CCOCC3)c3ccc(Br)cc32)cc1 (centres undefined) | > 123 µM | 105 µM | – |
| O=C(Nc1ccc(S(=O)(=O)c2ccc(NC(=O)c3ccc(N=Nc4cc(S(=O)(=O)O)c5cccnc5c4O)cc3S(=O)(=O)O)cc2)cc1)c1ccc(N=Nc2cc(S(=O)(=O)O)c3cccnc3c2O)cc1S(=O)(=O)O | 3.8 µM | 93.3 µM | – |
| CC(C)[C@H]1CO[C@@H]2CCC(=O)N12 | > 1050 µM | > 1050 µM | – |
| CCOc1cc2c(cc1O)C(=O)C[C@@H]1[C@@H]2CC[C@]2(C)[C@@H](O)CC[C@@H]12 | > 2 µM | 0.0794 µM | – |
| C1CCCN(NC2=NCCO2)CC1 | 93.3 µM | 1000 µM | – |
| Cc1nc2ccc(S(=O)(=O)Nc3ccccn3)cc2c(=O)n1NS(=O)(=O)c1ccccn1 | > 200 µM | > 200 µM | – |
| CC[C@@]1(O)C(=O)OCc2c1cc1n(c2=O)Cc2cc3c(CN(C)C)c(O)ccc3nc2-1 | – | – | inactive |
| N#CC(C(=O)C(=O)Nc1ccc(Cl)cc1)c1ccccc1 (centres undefined) | – | – | inactive |

| SMILES | EC50 | IC50 | outcome |
| --- | --- | --- | --- |
| Cc1ccc(NC(=O)CC2SC(N)=NC2=O)cc1C (centres undefined) | – | – | inactive |
| O=C1CCCCC/C1=C\c1ccc([N+](=O)[O-])cc1 | > 200 µM | 25.7 µM | – |
| COc1ccc(/C=C\c2cc(OC)c(OC)c(OC)c2)cc1OC(=O)CC(N)C(=O)O (centres undefined) | > 0.2 µM | 0.000309 µM | – |
| CC(C)(C)OC(=O)NC(Cc1ccc(OCc2ccccc2)cc1)C(=O)NC(COCc1ccccc1)C(=O)Oc1c(Cl)c(Cl)c(Cl)c(Cl)c1Cl (centres undefined) | > 100 µM | 44.7 µM | – |
| CCOC(=O)C1=C(O)C2C3CC4C2C(O)=C(C(=O)OCC)C2C1C3C42 (centres undefined) | > 200 µM | 93.3 µM | – |
| COc1ccc(N(C)C(=O)N(C)c2ccc([N+](=O)[O-])cc2)cc1 | > 200 µM | 9.33 µM | – |
| COc1ccc(C2CN(C(=O)c3ccccc3)N=C(c3ccccc3)O2)cc1 (centres undefined) | > 17 µM | > 17 µM | – |
| Cc1nc(C)c(C(=O)Nc2cccc3c2C(=O)NC3=O)cc1C(=O)Nc1cccc2c1C(=O)NC2=O | > 195 µM | > 195 µM | – |
| Cc1ccc2c(c1)C1(SC(C)C(=O)N1c1ccc(I)cc1)C(=O)N2 (centres undefined) | > 200 µM | 20 µM | – |
| CC1=NOCC(=O)N1 | > 2190 µM | > 2190 µM | – |
| O=S(=O)([O-])[O-].O=c1[nH]cnc2[nH]ncc12.O=c1[nH]cnc2[nH]ncc12.[Zn+2] | > 209 µM | 155 µM | – |
| N#Cc1nc(NC(=O)c2ccccc2)sc1N | > 200 µM | 15.1 µM | – |
| COC(=O)[C@](NC(=O)OCc1ccccc1)([C@@H](C)S(=O)c1ccc(C)cc1)C(F)(F)F (some centres undefined) | > 200 µM | 29.5 µM | – |
| COC(=O)C(C#CCCCCC#CC(NC(=O)OCc1ccccc1)(C(=O)OC)C(F)(F)F)(NC(=O)OCc1ccccc1)C(F)(F)F (centres undefined) | > 200 µM | 138 µM | – |
| Cc1cc2c(cc1-c1cc3c(cc1C)C(C(C)C)=C(O)C(=O)/C3=C\Nc1c(C)n(C)n(-c3ccccc3)c1=O)/C(=C/Nc1c(C)n(C)n(-c3ccccc3)c1=O)C(=O)C(O)=C2C(C)C | > 200 µM | 34.7 µM | – |
| CC(=O)OC1Sc2ccccc2C(=O)N2CCCC12 (centres undefined) | > 200 µM | > 200 µM | – |
| Clc1ccc(-c2c(C3=NCCCN3)nnn2-c2ccccc2)cc1 | > 389 µM | > 389 µM | – |
| COC(=O)C(CCCCNC(=O)CNC(=O)OCc1ccccc1)NC(=O)C(CCCCNC(=O)CNC(=O)OCc1ccccc1)NC(=O)OCc1ccccc1 (centres undefined) | > 100 µM | 66.1 µM | – |
| O=C(O)CCC(=O)N1c2ccccc2CC1c1c[nH]c2ccccc12 (centres undefined) | > 741 µM | 158 µM | – |
| O=P1(O)C=CC2(CCCC2)O1 | > 200 µM | > 200 µM | – |
| C/C=C1/[C@@H]2C[C@H]3C4=Nc5ccccc5C4(C4[C@@H](O)ON3[C@@H]14)[C@@H]2C(=O)OC | > 200 µM | > 200 µM | – |

| SMILES | EC50 | IC50 | outcome |
| --- | --- | --- | --- |
| N#CC1Cc2cc3c(cc21)OCO3 (centres undefined) | > 200 µM | > 200 µM | – |
| O=c1oc2c(-c3ccccc3)n[nH]c(=O)c2c2c1CCCC2 | > 170 µM | > 170 µM | – |
| COc1ccc(/C=N\N2CC(=O)N3C4C=CC(CC4)N3C2=O)cc1 (centres undefined) | > 200 µM | > 200 µM | – |
| CCC(=O)C(CCN1CCC(N2C(=O)C(CCC#N)c3ccccc32)CC1)(c1ccccc1)c1ccccc1 (centres undefined) | > 200 µM | 28.8 µM | – |
| N#CC1CCCCC1NC1(C#N)CCCCC1 (centres undefined) | > 195 µM | > 195 µM | – |
| O=C1CC(c2ccccc2)NN1c1ccccc1 (centres undefined) | – | – | inactive |
| CCN(CC)C(=O)COc1cc2c(O)c3c(O)c(C)c4c(c13)C(=O)C(C)(OC=CC(OC)C(C)C(OC(C)=O)C(C)C(O)C(C)C(O)C(C)C=CC=C(C)C(=O)N2)O4 (centres undefined) | > 155 µM | > 100 µM | – |
| Nc1c(S)cc(O)c2c1C(=O)c1ccccc1C2=O | > 100 µM | > 100 µM | – |
| O=C1/C(=C\c2ccccc2O)Cc2ccccc21 | > 148 µM | 28.2 µM | – |
| Cc1ccc(C2=NO[C@@H]3C(=O)N(c4ccc(Cc5ccc(N6C(=O)[C@H]7C(c8ccc(C)cc8)=NO[C@H]7C6=O)cc5)cc4)C(=O)[C@H]23)cc1 | > 11.5 µM | > 11.5 µM | – |
| NC(CSSCC(N)=NCCCCCSC12CC3CC(CC(C3)C1)C2)=NCCCCCSC12CC3CC(CC(C3)C1)C2 | > 200 µM | 6.17 µM | – |
| O=C1c2nc3n(c2C(=O)c2c1nc1n2CCC1)CCC3 | > 200 µM | 3.72 µM | – |
| N#CC(C(=O)/C(=N\NC(N)=O)C(C#N)c1ccccc1)c1ccccc1 (centres undefined) | > 724 µM | > 724 µM | – |
| CC(C)OP(=O)(OC(C)C)C(=Nc1ccncc1)NNc1ccc([N+](=O)[O-])cc1 | > 61.7 µM | > 61.7 µM | – |
| CCOC(=O)c1c(NC(=O)OC)c(C#N)c2n1CCCCC2 | > 200 µM | > 200 µM | – |
| O=c1oc2ccccc2c(-c2ccc(O)cc2)c1Oc1ccc(Cl)cc1 | – | – | inactive |
| OC(C1CCCC1=N/N=C1/CCCC1C(O)(C(F)(F)Cl)C(F)(F)Cl)(C(F)(F)Cl)C(F)(F)Cl (centres undefined) | > 50.1 µM | > 50.1 µM | – |
| O=C1OC(O)C(Oc2ccc(Cl)cc2)=C1Cl (centres undefined) | > 437 µM | 195 µM | – |
| Cc1cc(C(=C2C=CC(=Nc3ccc(S(=O)(=O)O)cc3)C=C2)c2ccc(Nc3ccc(S(=O)(=O)O)cc3)cc2)cc(S(=O)(=O)O)c1N | 30.2 µM | 49 µM | – |
| CCCCc1c2c(nc3c1CC/C(=C\c1ccccc1)C3=O)CCCC2 | > 4.17 µM | 3.31 µM | – |
| O=c1ccc2c([N+](=O)[O-])cc([N+](=O)[O-])c(O)c2[nH]1 | – | – | inactive |

| SMILES | EC50 | IC50 | outcome |
| --- | --- | --- | --- |
| COc1ccc2cc1Oc1ccc(cc1)C[C@@H]1c3cc(c(OC)cc3CCN1C)Oc1c(OC)c(OC)cc3c1[C@H](C2)N(C)CC3 | – | – | inactive |
| O=S1(=O)C=Cc2ccccc2CC1 | > 1290 µM | 741 µM | – |
| O=S(=O)(/C=C/c1ccc(F)cc1)Cc1ccc(CS(=O)(=O)/C=C/c2ccc(F)cc2)cc1 | > 27.5 µM | > 27.5 µM | – |
| O=c1c(-c2ccc(O)c(O)c2)coc2cc(O)c(O)cc12 | > 200 µM | 24.5 µM | – |
| NC(=O)CCNC(=O)c1ccccc1SC(=O)OCCBr | 6.31 µM | > 200 µM | – |
| CC[n+]1c(/C=C/c2ccc(N(CCCl)CCCl)cc2)ccc2cc(Br)ccc21 | – | – | inactive |
| O=C(c1ccco1)N(C(=S)N1CCN(c2ccccn2)CC1)C1CCCCC1 | > 46.8 µM | 35.5 µM | – |
| Cn1c(=O)c2c(-c3ccccc3)onc2n(C)c1=O | > 200 µM | 11 µM | – |
| N#CC(C#N)=Cc1ccccc1Br | > 191 µM | 3.31 µM | – |
| O=P(O)(O)CN1CCNCCN(CP(=O)(O)O)CCN(CP(=O)(O)O)CCNCC1 | > 100 µM | 64.6 µM | – |
| C=C[C@@]1(C)CCC2(O)C(CCC3C2(C)CCC[C@@]3(C)COC(=O)CC(=O)OC)C1 (some centres undefined) | > 24.5 µM | > 24.5 µM | – |
| O=P1(c2ccccc2)C(c2ccccc2)CCC1c1ccccc1 (centres undefined) | > 200 µM | 85.1 µM | – |
| CC1(C)C=CC(C)(C)c2c(NS(=O)(=O)c3ccccc3)ccc(NS(=O)(=O)c3ccccc3)c21 | > 200 µM | 63.1 µM | – |
| CC1(C)OCC2OC3(c4nc(C#N)c(N)o4)OC(C)(C)OC3C2O1 (centres undefined) | > 50.1 µM | > 50.1 µM | – |
| C=C1C(=O)[C@]23C[C@H]1CC(O)[C@H]2C1(CCC[C@@](C)(COC(C)=O)C1C=O)COC3=O (some centres undefined) | – | – | inactive |
| O=C1C(=O)N(c2cccc(C(F)(F)F)c2)C(=O)C(=O)C1c1nc2ccccc2s1 | > 44.7 µM | > 44.7 µM | – |
| CCOP(=O)(OCC)/C(C#N)=C/c1c[nH]c2ccccc12 | > 200 µM | 178 µM | – |
| [Cu+2].[O-]/C(=N\N=C/c1ccccc1F)c1ccncc1.[O-]/C(=N\N=C\c1ccccc1F)c1ccncc1 | > 100 µM | 16.2 µM | – |
| CC1c2c(cc(=O)n(C)c2O)C(=O)N1C (centres undefined) | 288 µM | 457 µM | – |
